# In US7524823B2, “Macrolides” (Basilea Pharmaceutica AG, priority 2005, dated 2009):
# How the values were obtained:
# Format in all cases: cell-based
# [1] = test system: Escherichia coli ATCC 25922; assay: MIC by broth microdilution (CAMHB, NCCLS); details: code C: Escherichia coli ATCC 25922
# Protocol: (§1) MIC values for non-anaerobes were obtained by broth microdilution using CAMHB (BBL) according to NCCLS guidelines (National Committee for Clinical Laboratory Standards. Methods for dilution antimicrobial susceptibility tests for bacteria that grow aerobically, 5th ed. Approved standard M7-A6. NCCLS, Wayne, Pa., 2003). Drugs were dissolved in DMSO prior to dispensing into 96-well microtitre plates; the concentration of DMSO in assay wells never exceeded 2% (v/v). CAMHB was supplemented with 5% (v/v) horse serum (Sigma, cat. no. H-1270) in lieu of laked horse blood for cultivation of Streptococcus pneumoniae, and with 5% (v/v) Fildes enrichment (BBL, cat. no. 220810) supernate in lieu of Haemophilus Test Medium and additives for cultivation of Haemophilus influenzae (Pankuch G A, Hoellman D B, Lin G, Bajaksouzian S, Jacobs M R, Appelbaum P C. Activity of HMR 3647 compared to those of five agents against Haemophilus influenzae and Moraxella catarrhalis by MIC determination and time-kill assay. Antimicrob. Agents Chemother. November 1998; 42(11): 3032-4). Activities expressed as the minimal inhibitory concentrations (MICs) (μg/ml) are given in the following Table 3, and the microorganisms used for testing are listed in Table 2 below.
# [2] = test system: Staphylococcus aureus 1086; assay: MIC by broth microdilution (CAMHB, NCCLS); details: code B: Staphylococcus aureus 1086
# Protocol: as §1
# [3] = test system: Staphylococcus aureus ATCC 29213; assay: MIC by broth microdilution (CAMHB, NCCLS); details: code A: Staphylococcus aureus ATCC 29213
# Protocol: as §1
# [4] = test system: Streptococcus pneumoniae 1/1; assay: MIC by broth microdilution (CAMHB + 5% horse serum, NCCLS); details: code D: Streptococcus pneumoniae 1/1
# Protocol: as §1
# [5] = test system: Streptococcus pneumoniae SL199T; assay: as above; details: code E: Streptococcus pneumoniae SL199T
# Protocol: as §1
# [6] = test system: Streptococcus pneumoniae Tupelo; assay: as above; details: code F: Streptococcus pneumoniae Tupelo
# Protocol: as §1
# [7] = test system: Haemophilus influenzae 12214; assay: MIC by broth microdilution (CAMHB + 5% Fildes enrichment, NCCLS); details: code G: Haemophilus influenzae 12214
# Protocol: as §1
# [8] = test system: Haemophilus influenzae QK50; assay: as above; details: code H: Haemophilus influenzae QK50
# Protocol: as §1
# [9] = test system: Propionibacterium acnes EG7NS; assay: MIC by anaerobic broth microdilution (WCB, NCCLS); details: code I: Propionibacterium acnes EG7NS; anaerobic, 35-37° C., 48 h
# Protocol: (§2) MIC values towards strains of propionibacteria were obtained by broth microdilution using WCB (Anaerobe Broth MIC, Difco) according to NCCLS guidelines (National Committee for Clinical Laboratory Standards. Methods for anti-microbial susceptibility testing of anaerobic bacteria, 5th ed.; approved standard. NCCLS publication no. M11-A5. NCCLS, Wayne, Pa., 2001). Microtitre plates were loaded into 7-L GENbox anaerobic incubation jars (BioMérieux, cat. no. 96 128) fitted with anaerobic atmosphere generators (BioMérieux, cat. no. 96 124) and a Dry Anaerobic Indicator Strip (BBL, cat. no. 271051). Under these conditions, an O2 concentration <0.1% was achieved by 2.5 h, and a CO2 concentration >15% by 24 h. MIC values were read after incubation at 35-37° C. for 48 h (Table 3).
# [10] = test system: Propionibacterium acnes SW101T; assay: MIC by anaerobic broth microdilution (WCB, NCCLS); details: code K: Propionibacterium acnes SW101T, 35-37° C., 48 h
# Protocol: as §2
SMILES,MIC [1],MIC [2],MIC [3] [µg/mL],MIC [4],MIC [5] [µg/mL],MIC [6] [µg/mL],MIC [7] [µg/mL],MIC [8] [µg/mL],MIC [9],MIC [10] [µg/mL]
CC[C@H]1OC(=O)[C@H](C)[C@@H](O[C@H]2C[C@@](C)(OC)[C@@H](O)[C@H](C)O2)[C@H](C)[C@@H](O[C@@H]2O[C@H](C)C[C@H](N(C)C)[C@H]2O)[C@](C)(OC)C[C@@H](C)C(=O)[C@H](C)[C@H]2[C@H](SCCOCn3cnc4cccnc43)C(=O)O[C@@]21C [Example 2],>32 µg/mL,8 µg/mL,2,<=0.06 μg/ml,0.5,0.5,4,8,<=0.06 μg/ml,16
CC[C@H]1OC(=O)[C@H](C)[C@@H](O[C@H]2C[C@@](C)(OC)[C@@H](O)[C@H](C)O2)[C@H](C)[C@@H](O[C@@H]2O[C@H](C)C[C@H](N(C)C)[C@H]2O)[C@](C)(OC)C[C@@H](C)C(=O)[C@H](C)[C@H]2[C@H](S(=O)(=O)CCn3cnc4c(N)ncnc43)C(=O)O[C@@]21C [Example 7],>32 µg/mL,>32 µg/mL,32,2 µg/mL,4,16,>32,>32,2 µg/mL,8
CC[C@H]1OC(=O)[C@H](C)[C@@H](O[C@H]2C[C@@](C)(OC)[C@@H](O)[C@H](C)O2)[C@H](C)[C@@H](O[C@@H]2O[C@H](C)C[C@H](N(C)C)[C@H]2O)[C@](C)(OC)C[C@@H](C)C(=O)[C@H](C)[C@H]2[C@H](SCCCc3ccc4ncccc4c3)C(=O)O[C@@]21C [Example 3],>32 µg/mL,8 µg/mL,4,0.25 µg/mL,2,8,>32,16,0.25 µg/mL,16
CC[C@H]1OC(=O)[C@H](C)[C@@H](O[C@H]2C[C@@](C)(OC)[C@@H](O)[C@H](C)O2)[C@H](C)[C@@H](O[C@@H]2O[C@H](C)C[C@H](N(C)C)[C@H]2O)[C@](C)(OC)C[C@@H](C)C(=O)[C@H](C)[C@H]2[C@H](SCCNc3ncnc4[nH]cnc34)C(=O)O[C@@]21C [Example 9],>32 µg/mL,>32 µg/mL,4,<=0.06 μg/ml,0.25,1,2,2,0.125 µg/mL,4
CC[C@H]1OC(=O)[C@H](C)[C@@H](O[C@H]2C[C@@](C)(OC)[C@@H](O)[C@H](C)O2)[C@H](C)[C@@H](O[C@@H]2O[C@H](C)C[C@H](N(C)C)[C@H]2O)[C@](C)(OC)C[C@@H](C)C(=O)[C@H](C)[C@H]2[C@H](SCCCN3C(=O)c4cccnc4C3=O)C(=O)O[C@@]21C [Example 5],>32 µg/mL,>32 µg/mL,2,<=0.06 μg/ml,8,16,8,8,<=0.06 μg/ml,16

# Further lines, results first:
MIC [1],MIC [2],MIC [3] [µg/mL],MIC [4],MIC [5] [µg/mL],MIC [6] [µg/mL],MIC [7] [µg/mL],MIC [8] [µg/mL],MIC [9],MIC [10] [µg/mL],SMILES
>32 µg/mL,16 µg/mL,1,<=0.06 μg/ml,1,0.5,4,4,<=0.06 μg/ml,4,CC[C@H]1OC(=O)[C@H](C)[C@@H](O[C@H]2C[C@@](C)(OC)[C@@H](O)[C@H](C)O2)[C@H](C)[C@@H](O[C@@H]2O[C@H](C)C[C@H](N(C)C)[C@H]2O)[C@](C)(OC)C[C@@H](C)C(=O)[C@H](C)[C@H]2[C@H](SCC(=O)Nc3cccc4cccnc34)C(=O)O[C@@]21C [Example 25]
>32 µg/mL,>=32 μg/ml,1,<=0.06 μg/ml,4,8,8,8,<=0.06 μg/ml,>32,CC[C@H]1OC(=O)[C@H](C)[C@@H](O[C@H]2C[C@@](C)(OC)[C@@H](O)[C@H](C)O2)[C@H](C)[C@@H](O[C@@H]2O[C@H](C)C[C@H](N(C)C)[C@H]2O)[C@](C)(OC)C[C@@H](C)C(=O)[C@H](C)[C@H]2[C@H](SCC(=O)Nc3ccc(C(=O)OC)c(OC)c3)C(=O)O[C@@]21C [Example 24]
>=32 μg/ml,>32 µg/mL,1,<=0.06 μg/ml,0.125,0.5,2,2,0.125 µg/mL,1,CC[C@H]1OC(=O)[C@H](C)[C@@H](O[C@H]2C[C@@](C)(OC)[C@@H](O)[C@H](C)O2)[C@H](C)[C@@H](O[C@@H]2O[C@H](C)C[C@H](N(C)C)[C@H]2O)[C@](C)(OC)C[C@@H](C)C(=O)[C@H](C)[C@H]2[C@H](SCCCn3cnc4c(N)ncnc43)C(=O)O[C@@]21C [Example 16]
>32 µg/mL,16 µg/mL,2,<=0.06 μg/ml,0.5,1,8,8,<=0.06 μg/ml,16,CC[C@H]1OC(=O)[C@H](C)[C@@H](O[C@H]2C[C@@](C)(OC)[C@@H](O)[C@H](C)O2)[C@H](C)[C@@H](O[C@@H]2O[C@H](C)C[C@H](N(C)C)[C@H]2O)[C@](C)(OC)C[C@@H](C)C(=O)[C@H](C)[C@H]2[C@H](SCCN(C)CCn3cnc4c(N)ncnc43)C(=O)O[C@@]21C [Example 14]
>32 µg/mL,32 µg/mL,2,<=0.06 μg/ml,2,2,4,4,<=0.06 μg/ml,32,CC[C@H]1OC(=O)[C@H](C)[C@@H](O[C@H]2C[C@@](C)(OC)[C@@H](O)[C@H](C)O2)[C@H](C)[C@@H](O[C@@H]2O[C@H](C)C[C@H](N(C)C)[C@H]2O)[C@](C)(OC)C[C@@H](C)C(=O)[C@H](C)[C@H]2[C@H](SCC(=O)Nc3ccc(F)cc3F)C(=O)O[C@@]21C [Example 23]
>32 µg/mL,16 µg/mL,2,0.25 µg/mL,4,4,8,16,0.125 µg/mL,8,CC[C@H]1OC(=O)[C@H](C)[C@@H](O[C@H]2C[C@@](C)(OC)[C@@H](O)[C@H](C)O2)[C@H](C)[C@@H](O[C@@H]2O[C@H](C)C[C@H](N(C)C)[C@H]2O)[C@](C)(OC)C[C@@H](C)C(=O)[C@H](C)[C@H]2[C@H](SCC(=O)c3csc4ccccc34)C(=O)O[C@@]21C [Example 28]
>32 µg/mL,8 µg/mL,2,<=0.06 μg/ml,0.5,1,4,8,<=0.06 μg/ml,8,CC[C@H]1OC(=O)[C@H](C)[C@@H](O[C@H]2C[C@@](C)(OC)[C@@H](O)[C@H](C)O2)[C@H](C)[C@@H](O[C@@H]2O[C@H](C)C[C@H](N(C)C)[C@H]2O)[C@](C)(OC)C[C@@H](C)C(=O)[C@H](C)[C@H]2[C@H](SCCCn3cnc4cccnc43)C(=O)O[C@@]21C [Example 12]
